The target of data set [1] is T1, ATP-dependent translocase ABCB1 (Mus musculus, UniProt P21447). Nature of the data set: TP_TRANSPORTER: increase in brain concentration in mdr1a(-/-) mouse. It is filed as functional, organism-based. The following applies: in vivo.
The target in data set [2] is T1, ATP-dependent translocase ABCB1. Briefly: TP_TRANSPORTER: increase in blood concentration in mdr1a(-/-) mouse. It is filed as functional, organism-based. The following applies: in vivo.

T1 sequence (P21447 whole entry): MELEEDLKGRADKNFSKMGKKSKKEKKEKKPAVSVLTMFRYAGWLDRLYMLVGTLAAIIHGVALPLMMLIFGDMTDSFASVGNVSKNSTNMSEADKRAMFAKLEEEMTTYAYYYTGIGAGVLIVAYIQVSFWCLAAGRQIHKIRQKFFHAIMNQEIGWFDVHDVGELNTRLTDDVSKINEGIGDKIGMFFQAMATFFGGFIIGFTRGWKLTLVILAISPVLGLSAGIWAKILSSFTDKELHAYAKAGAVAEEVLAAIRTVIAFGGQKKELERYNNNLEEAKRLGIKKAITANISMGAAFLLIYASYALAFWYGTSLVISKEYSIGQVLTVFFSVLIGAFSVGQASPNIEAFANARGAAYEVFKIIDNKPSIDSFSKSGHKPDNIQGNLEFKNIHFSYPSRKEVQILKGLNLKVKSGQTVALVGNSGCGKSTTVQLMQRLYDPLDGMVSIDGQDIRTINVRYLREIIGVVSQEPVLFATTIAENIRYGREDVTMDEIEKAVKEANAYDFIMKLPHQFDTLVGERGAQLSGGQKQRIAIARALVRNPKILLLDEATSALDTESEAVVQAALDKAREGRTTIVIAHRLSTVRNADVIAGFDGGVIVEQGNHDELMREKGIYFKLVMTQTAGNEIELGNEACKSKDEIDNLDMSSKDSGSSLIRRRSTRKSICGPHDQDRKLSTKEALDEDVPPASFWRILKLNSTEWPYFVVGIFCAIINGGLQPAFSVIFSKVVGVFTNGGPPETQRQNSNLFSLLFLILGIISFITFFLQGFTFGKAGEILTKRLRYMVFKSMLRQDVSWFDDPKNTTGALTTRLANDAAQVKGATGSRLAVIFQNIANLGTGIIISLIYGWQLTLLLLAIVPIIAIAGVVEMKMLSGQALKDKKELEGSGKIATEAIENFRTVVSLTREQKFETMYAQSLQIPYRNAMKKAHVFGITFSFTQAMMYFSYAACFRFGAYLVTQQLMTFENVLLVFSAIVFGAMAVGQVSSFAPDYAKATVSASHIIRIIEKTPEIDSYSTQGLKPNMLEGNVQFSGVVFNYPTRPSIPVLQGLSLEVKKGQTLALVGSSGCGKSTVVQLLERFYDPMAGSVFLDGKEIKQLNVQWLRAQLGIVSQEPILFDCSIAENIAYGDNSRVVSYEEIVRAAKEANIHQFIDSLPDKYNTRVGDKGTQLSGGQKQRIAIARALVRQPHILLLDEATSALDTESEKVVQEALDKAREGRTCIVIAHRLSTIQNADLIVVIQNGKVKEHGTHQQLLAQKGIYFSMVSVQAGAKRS

`C=CC[C@@H]1/C=C(\C)C[C@H](C)C[C@H](OC)[C@H]2O[C@@](O)(C(=O)C(=O)N3CCCC[C@H]3C(=O)O[C@H](/C(C)=C/[C@@H]3CC[C@@H](O)[C@H](OC)C3)[C@H](C)[C@@H](O)CC1=O)[C@H](C)C[C@@H]2OC` [TACROLIMUS ANHYDROUS]: the Activity result in data set [1] and in data set [2] was “substrate [+]” throughout.

(Values after ChEMBL document CHEMBL2074004, “P-glycoprotein-dependent disposition kinetics of tacrolimus: studies in mdr1a knockout mice” (Pharm Res, 1999).)
